Test results as given in patent US12370143B2, “Compound or salt thereof and lipid particles” (FUJIFILM Corporation, priority 2018, dated 2025).
Where two headings read alike, the source gives them in different places.

Tests used:
[1] = Particle size of nucleic acid lipid particles (Luc2-siRNA); assay type: physicochemical; conditions: compound/DSPC/cholesterol/DMG-PEG2000 50/10/38.5/1.5
Experimental: By using the dispersion liquid of lipid particles as it was, the particle size of the lipid particles was measured using a zeta potential/particle size measurement system ELS-Z2 (Otsuka Electronics Co., Ltd.).
(§1) The compounds described in Table 2, L-α-distearoylphosphatidylcholine (trade name: COATSOME® MC-8080; NOF corporation), cholesterol (trade name: Choesterol HP; NIPPON FINE CHEMICAL CO., LTD.), and 1,2-dimyristoyl-rac-glycero-3-(methylpolyoxyethylene 2000) (hereinafter, called DMG-PEG2000) (trade name: SUNBRIGHT® GM-020; NOF corporation) were dissolved in ethanol at a molar ratio of 50/10/38.5/1.5 such that the total lipid concentration became 20 mmol/L, thereby obtaining an oil phase.
(§2) An aqueous nucleic acid solution obtained by dissolving 5 mg of Luc2-siRNA having the sequence described in Biomacromolecules (2013) 14, p. 3905 in 1 mL of sterile water was diluted with 10 mmol/L acetate buffer having a pH 4 such that the nucleic acid concentration became 19.7 μmol/L, thereby obtaining a water phase. Then, the water phase and the oil phase were mixed together by a micromixer (see JP5288254B) using a syringe pump such that the volume ratio of water phase:oil phase became 3:1 (final ratio of siRNA/lipid=339 (mol/mol)), and the mixed solution was diluted 2× with PBS, thereby obtaining a dispersion liquid of nucleic acid lipid particles. The dispersion liquid was dialyzed (Slide-A-Lyzer G2, MWCO: 10 kD, Thermo Fisher Scientific) using a phosphate buffered saline such that ethanol was removed, thereby obtaining nucleic acid lipid particles.
The particle size of the nucleic acid lipid particles was measured by the same method as that in <Preparation of lipid particles>.

[2] = Encapsulation rate of siRNA in nucleic acid lipid particles (Luc2-siRNA); assay type: physicochemical; conditions: compound/DSPC/cholesterol/DMG-PEG2000 50/10/38.5/1.5
Experimental: as §1, §2
A 3 mol/L aqueous sodium acetate solution (30 μL) and 9 μL of glycogen were added to 60 μL of the lipid particles retaining nucleic acids, and then 1.5 mL of ethanol was added thereto such that only the nucleic acids were precipitated while the lipid was dissolved. Then, the supernatant was removed by centrifugation. After the precipitates were air-dried for 15 minutes or longer, water was added thereto such that the precipitates were redissolved, and the concentration thereof was measured using Nanodrop NF1000 (Thermo Fisher Scientific), thereby quantifying the total nucleic acid concentration.
The nucleic acid concentration was quantified using a Quant-iT RiboGreen RNA Assay Kit (Thermo Fisher Scientific) according to the protocol. First, a 20×TE buffer included in the above kit was diluted with water, thereby obtaining a 1×TE buffer. TE represents Tris/EDTA (ethylenediaminetetraacetic acid). In order to quantify only the nucleic acid in the outer water phase, the dispersion liquid of lipid particles retaining nucleic acids was diluted 10,000× with the 1×TE buffer.
The 10,000× diluted dispersion liquid of lipid particles (100 μL) was put in a 96-well plate, then 100 μL of a RiboGreen reagent (reagent included in the Quanti-iT Ribogreen RNA Assay Kit described above) diluted 2000× with the 1×TE buffer was added to a sample, and fluorescence (excitation wavelength: 485 nm, fluorescence wavelength: 535 nm) was measured using a plate reader Infinit EF200 (TECAN), thereby quantifying the nucleic acid concentration in the outer water phase.
By using the total nucleic acid concentration obtained through the above steps and the quantified nucleic acid concentration in the outer water phase, the nucleic acid encapsulation rate of the nucleic acid lipid particles was calculated according to the following Equation. Nucleic acid encapsulation rate (%)=(total nucleic acid concentration−nucleic acid concentration in outer water phase)/total nucleic acid concentration×100 The results are shown in Table 2.

[3] = system: DMS273 cells constantly expressing Luc; test: Target reporter protein (Luc) knockdown in cell, reporter protein assay; assay type: cell-based; conditions: Homo sapiens, DMS-273
Experimental: The nucleic acid lipid particles prepared by the same method as that in <Preparation of nucleic acid lipid particles> by using the compounds described in Table 3 were evaluated by reporter assay by the following method.
By using pGL4.50 Luc2 (E1310 Promega), DMS273 cells (human small cell lung cancer) (European Collection of Authenticated Cell Cultures) constantly expressing Luc were prepared. RPMI (Gibco) (10% FBS (Gibco), 1% Penicillin-Streptomycin (Gibco), and 200 μg/mL Hygromycin (Wako)) was used as a culture medium. DMS273 cells (2.0×10^3) constantly expressing luciferase (Luc) were seeded in a 96-well plate and cultured in a 5% CO2 incubator for 24 hours, and then the medium was replaced. Then, 10 μL of each of the dispersion liquids of lipid particles diluted with PBS (Gibco) to yield a concentration of 1 to 1,000 nmol/L was added to the 96-well plate, and the final concentration was adjusted to 0.1 to 100 nmol/L (total amount of liquid: 110 μl). Thereafter, the cells were cultured in a 5% CO2 incubator for 24 hours, the medium was then replaced, and the cells were further cultured for 24 hours.
After the viable cell count was determined, the expression amount of Luc was quantified using a Steady Glo assay kit (Promega), and the knockdown efficiency was calculated according to the following equation. Then, the IC50 concentration at which the expression amount of Luc was knocked down to 50% was calculated.

[4] = Luc2-siRNA lipid particles using the compound, siRNA 0.1 to 100 nmol/L, concentration at which Luc expression is knocked down to 50%, read-out: IC50

SMILES | Particle size (nm) [1] [nm] | Nucleic acid encapsulation rate [2] [%] | IC50 [3] [nM] | IC50 [3, 4] [nM]
CCCCC/C=C\C/C=C\CCCCCCCCC(CCCCCCCC/C=C\C/C=C\CCCCC)OC(=O)OCCN(C)C [Comparative Example 4, 2-(Dimethylamino)ethyl((6Z,9Z,28Z,31Z)-heptatriaconta-6,9,28,31-tetraen-19-yl)carbonate, reference compound] | 62.8 | 77 | > 100 | –
CCCCC/C=C\C/C=C\CCCCCCCCN(CCCCCCCC/C=C\C/C=C\CCCCC)C(=O)OCCN(C)CCN(CC)CC [Example 7, 2-((2-(Diethylamino)ethyl)(methyl)amino)ethyl di((9Z,12Z)-octadeca-9,12-dien-1-yl)carbamate] | 98.6 | 84 | – | 14
CCCCCCC(CCCC)COC(=O)CCCCCCCCC(CCCCCC)OC(=O)OCCN(CCN(CC)CC)C(C)C (stereo not drawn) [Example 84, 2-butyloctyl 3-ethyl-12-hexyl-6-isopropyl-10-oxo-9,11-dioxa-3,6-diazahenicosan-21-oate] | 81 | 79 | – | 30
CCCCC/C=C\C/C=C\CCCCCCCCC(CCCCCCCC/C=C\C/C=C\CCCCC)OC(=O)OCCN(CCCCCCCCCCCC)CCN(C)C [Example 53] | 81 | 78 | – | 9
CCCCCCCCC(CCCCCC)COC(=O)CCCCCCCCC(CCCCC)OC(=O)OCCN(CCO)CCN(CC)CC (stereo not drawn) [Example 131, 2-Hexyldecyl 3-ethyl-6-(2-hydroxyethyl)-10-oxo-12-pentyl-9,11-dioxa-3,6-diazahenicosan-21-oate] | 291 | 41 | – | –
CCCCCCC(CCCC)COC(=O)CCCC(CCCCCC)OC(=O)OCCN(CCN(CC)CC)C(C)C (stereo not drawn) [Example 81, 2-Butyloctyl 3-ethyl-12-hexyl-6-isopropyl-10-oxo-9,11-dioxa-3,6-diazahexadecan-16-oate] | 102.6 | 49 | – | –
CCCCCCCC/C=C\CCCCCCCC(=O)OCCCCCCC(CCCCCCOC(=O)CCCCCCC/C=C\CCCCCCCC)OC(=O)OCCN(CC)CCN(C)C [Example 36, 7-(((2-((2-(dimethylamino)ethyl)(ethyl)amino)ethoxy)carbonyl)oxy)tridecane-1,13-diyldioleate] | – | – | 11 | –
CCCCC/C=C\C/C=C\CCCCCCCCC(CCCCCCCC/C=C\C/C=C\CCCCC)OC(=O)OCCN(CC)CCN(CCC)CCC [Example 49, 2-((2-(Dipropylamino)ethyl)(ethyl)amino)ethyl((6Z,9Z,28Z,31Z)-heptatriaconta-6,9,28,31-tetraen-19-yl)carbonate] | 74.3 | 80 | – | –
CCCCC/C=C\C/C=C\CCCCCCCCN(CCCCCCCC/C=C\C/C=C\CCCCC)C(=O)OCCN(C)CCN1CCOCC1 [Example 5, 2-(Methyl(2-morpholinoethyl)amino)ethyl di((9Z,12Z)-octadeca-9,12-diene-1-yl)carbamate] | 73.8 | 78 | – | –
CCCCC/C=C\C/C=C\CCCCCCCCC(CCCCCCCC/C=C\C/C=C\CCCCC)OC(=O)OCCN(CCN(C)CCC)C(C)C [Example 63, (6Z, 9Z, 28Z, 31Z)-heptatriaconta-6,9,28,31-tetraen-19-yl(2-(isopropyl(2-(methyl(propyl)amino)ethyl)amino)ethyl)carbonate] | 65.8 | 79 | – | –
CCCCCCCCC(CCCCCC)COC(=O)CCCCCCCCC(CCCCCC)OC(=O)OCCN(CCO)CCN(CC)CC (stereo not drawn) [Example 97, 2-Hexyldecyl 3-ethyl-12-hexyl-6-(2-hydroxyethyl)-10-oxo-9,11-dioxa-3,6-diazahenicosan-21-oate] | 142 | 82 | – | –
CCCCCCCC/C=C\CCCCCCCCN(CCCCCCCCC)C(=O)OCCN(C)CCN(C)C [Example 15, 2-((2-(Dimethylamino)ethyl)(methyl)amino)ethyl(Z)-nonyl(octadec-9-en-1-yl)carbamate] | 122.8 | 83 | – | –
CCCCCC/C=C/COC(=O)CCCCCCCN(CCCCCCCC(=O)OC/C=C/CCCCCC)C(=O)OCCN(C)CCN(C)C [Example 12, (E)-non-2-en-1-yl 2,5-dimethyl-10-(8-(((E)-non-2-en-1-yl)oxy)-8-oxooctyl)-9-oxo-8-oxa-2,5,10-triazaoctadecan-18-oate] | 254.2 | 100 | – | –
CCCCCCC(CCCC)COC(=O)CCCCC(CCCCCC)OC(=O)OCCN(CCN(CC)CC)C(C)C (stereo not drawn) [Example 95, 2-Butyloctyl 3-ethyl-12-hexyl-6-isopropyl-10-oxo-9,11-dioxa-3,6-diazaheptadecan-17-oate] | 95.5 | 83 | – | –
CCCCCCCCC(CCCCCC)COC(=O)CCCC(CCCCCC)OC(=O)OCCN(CC)CCN(CC)CC (stereo not drawn) [Example 82, 2-Hexyldecyl 3,6-diethyl-12-hexyl-10-oxo-9,11-dioxa-3,6-diazahexadecan-16-oate] | 77 | 78 | – | –
CCCCCC(CCCCC)C(=O)OCCCCCCC(CCCCCCOC(=O)C(CCCCC)CCCCC)OC(=O)OCCN(CC)CCN(CC)CC [Example 60, 7-(((2-((2-(Diethylamino)ethyl)(ethyl)amino)ethoxy)carbonyl)oxy)tridecane-1,13-diylbis(2-pentylheptanoate)] | – | – | – | 1
CCCCC/C=C\C/C=C\CCCCCCCCC(CCCCCCCC/C=C\C/C=C\CCCCC)OC(=O)OCCN(CCN(C)C)C1CCCCC1 [Example 32, 2-(Cyclohexyl(2-(dimethylamino)ethyl)amino)ethyl((6Z,9Z,28Z,31Z)-heptatriaconta-6,9,28,31-tetraen-19-yl)carbonate] | 71.6 | 78 | – | –
CCCCC/C=C\C/C=C\CCCCCCCCC(CCCCCCCC/C=C\C/C=C\CCCCC)OC(=O)OCCN(CCCC)CCN(CC)CC [Example 39, 2-(Butyl(2-(diethylamino)ethyl)amino)ethyl((6Z,9Z,28Z,31Z)-heptatriaconta-6,9,28,31-tetraen-19-yl)carbonate] | 78.3 | 88 | – | –
CCCCCCC(CCCCCCCCC(=O)OCCC(CCCCC)CCCCC)OC(=O)OCCN(CCO)CCN(CC)CC (stereo not drawn) [Example 123, 3-Pentyloctyl 3-ethyl-12-hexyl-6-(2-hydroxyethyl)-10-oxo-9,11-dioxa-3,6-diazahenicosan-21-oate] | 257 | 66 | – | –
CCCCC/C=C\C/C=C\CCCCCCCCC(CCCCCCCC/C=C\C/C=C\CCCCC)OC(=O)OCCN(C)CCN1CCOCC1 [Example 21, 2-(Methyl(2-morpholinoethyl)amino)ethyl((6Z,9Z,28Z,31Z)-heptatriaconta-6,9,28,31-tetraen-19-yl)carbonate] | 78.0 | 78 | – | –
